From patent publication US20080021026A1, “BENZOTHIOPHENE INHIBITORS OF RHO KINASE” (priority 2006, published 2008) come the findings set out here.

For orientation: IC50 means the concentration that inhibits the measured activity by half.

Test [1] addresses T1, recombinant N-terminal GST-tagged human Rho kinase 2 (ROCK2, amino acids 1-552) (Homo sapiens, UniProt O75116).
T1 construct: ROCK2, amino acids 1-552; purchased Invitrogen Inc. PV3759
The experiment in a line: In vitro Rho kinase assay (luciferase-based ATP consumption), ROCK2. Format: biochemical. To be noted: recombinant GST-tagged human ROCK2, luciferase-based ATP consumption; read-out: ROCK2 IC50. The essentials: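 Luciferase-based luminescence of leftover ATP after 2 h at 30 °C, where inhibition raises signal, reports activity of GST-tagged ROCK2 (aa 1-552) at 0.82 μg/ml. Conditions: S6 peptide 100 μg/ml, […], pH 7.5 Tris buffer. Results given as percent of H-1152P control activity.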

Test [2] has as its target T2, recombinant N-terminal GST-tagged human Rho kinase 1 (ROCK1, amino acids 1-535) (Homo sapiens, UniProt Q13464).
T2 construct: ROCK1, amino acids 1-535; purchased Invitrogen Inc. PV-3691
Briefly: In vitro Rho kinase assay (luciferase-based ATP consumption), ROCK1. The test is classed as biochemical. The conditions noted are these: recombinant GST-tagged human ROCK1, luciferase-based ATP consumption; read-out: ROCK1 IC50. The method, then:
In Vitro Rho Kinase Assay
Rho kinase biochemical assays described below depend on firefly luciferase-based, indirect measurement of total ATP consumption by the kinase following incubation with substrate and ATP. 25 μl of Rho kinase assay buffer (20 mM Tris-HCL [pH 7.5], 1 mM MgCl2, 0.4 mM CaCl2, 0.15 mM EGTA, 0.1 mg/ml bovine serum albumin) containing 0.82 μg/ml of recombinant N-terminal GST-tagged human Rho kinase 1 (ROCK1, amino acids 1-535, Invitrogen Inc., cat. #PV-3691) or recombinant N-terminal GST-tagged human Rho kinase 2 (ROCK2, amino acids 1-552, Invitrogen Inc., cat #PV3759), 100 μg/ml S6 peptide substrate (related to amino acids 218-249 of the human 40S ribosomal protein S6, and suitable for ROCK1 or ROCK2, e.g. Upstate/Millipore Inc., cat #12-420), and 3 µM ATP are dispensed to wells of a 384 multi-well opaque plate. The plate is centrifuged for 30 seconds at approximately 200×g. 240 nl of test compound in DMSO is dispensed to each well by passive pin transfer. The lag phase of this in vitro kinase reaction permits addition of compounds soon after the reaction initiates. The reaction is allowed to incubate at 30° C. for 2 hours. The assay plates are sealed and maintained in a humidified environment. After 2 hours, 25 μl of easylite protein kinase assay reagent (Perkin-Elmer, Inc.) is dispensed. After an additional 10 minute incubation at room temperature (about 22° C.), luminescence activity is measured on a Molecular Devices Analyst multi-mode plate reader or other suitable plate reader. Kinase inhibition results in less ATP consumption, and therefore increased luminescence signal. Negative control activity is measured with DMSO lacking any test compound. The positive control is 2-methyl-1-(4-methylisoquinolin-5-ylsulfonyl)perhydro-1,4-diazepine hydrochloride (aka H-1152P, HCl salt). Efficacy is measured as a percentage of positive control activity. […] The designation NT means the cited example was not tested.

T2 sequence (Q13464 1-535): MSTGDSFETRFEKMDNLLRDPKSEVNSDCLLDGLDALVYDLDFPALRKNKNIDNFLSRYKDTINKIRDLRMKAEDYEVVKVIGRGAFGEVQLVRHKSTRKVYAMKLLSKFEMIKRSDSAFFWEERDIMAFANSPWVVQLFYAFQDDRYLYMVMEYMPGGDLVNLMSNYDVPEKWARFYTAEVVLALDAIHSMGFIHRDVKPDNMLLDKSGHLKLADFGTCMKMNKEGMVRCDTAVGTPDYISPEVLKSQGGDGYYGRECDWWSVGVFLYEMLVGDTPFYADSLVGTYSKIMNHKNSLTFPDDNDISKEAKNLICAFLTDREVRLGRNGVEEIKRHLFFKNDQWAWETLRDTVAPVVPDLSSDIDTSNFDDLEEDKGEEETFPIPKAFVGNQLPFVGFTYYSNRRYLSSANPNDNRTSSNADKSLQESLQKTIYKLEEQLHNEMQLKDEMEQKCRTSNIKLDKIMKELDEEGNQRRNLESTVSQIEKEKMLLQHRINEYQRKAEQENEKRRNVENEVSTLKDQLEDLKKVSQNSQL
T1 sequence (O75116 1-552): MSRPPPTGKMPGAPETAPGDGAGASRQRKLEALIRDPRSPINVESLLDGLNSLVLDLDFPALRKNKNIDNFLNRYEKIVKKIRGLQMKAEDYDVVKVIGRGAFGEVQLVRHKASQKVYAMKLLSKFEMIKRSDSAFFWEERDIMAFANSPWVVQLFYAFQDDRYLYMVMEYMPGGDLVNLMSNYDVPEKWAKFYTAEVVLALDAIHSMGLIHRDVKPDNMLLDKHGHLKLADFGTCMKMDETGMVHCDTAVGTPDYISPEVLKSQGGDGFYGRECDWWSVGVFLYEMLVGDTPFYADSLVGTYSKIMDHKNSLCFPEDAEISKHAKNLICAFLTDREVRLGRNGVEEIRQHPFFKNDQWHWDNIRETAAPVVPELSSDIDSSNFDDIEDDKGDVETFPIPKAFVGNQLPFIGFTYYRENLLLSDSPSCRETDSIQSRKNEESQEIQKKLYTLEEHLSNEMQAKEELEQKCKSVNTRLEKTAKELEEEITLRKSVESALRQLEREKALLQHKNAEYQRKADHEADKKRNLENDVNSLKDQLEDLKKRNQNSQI

For `COc1cc(Cl)ccc1C(=O)NCc1ccc2sc(-c3ccnc(N)n3)c(C)c2c1` [Example 233, COc1cc(Cl)ccc1C(═O)NCc2ccc3sc(c(C)c3c2)-c4ccnc(N)n4], the IC50 in test [1] and in test [2] was < 5 µM throughout.
`CCC(C(=O)NCc1ccc2sc(-c3ccnc(N)n3)c(C)c2c1)c1ccccc1` (stereo not shown) [Example 169, CCC(C(═O)NCc1ccc2sc(c(C)c2c1)-c3ccnc(N)n3)c4ccccc4]: the IC50 in test [1] and in test [2] was < 5 µM throughout.
Regarding `Cc1c(-c2ccnc(N)n2)sc2ccc(CNC(=O)c3ccc(F)cc3)cc12` [Example 123, Cc1c(sc2ccc(CNC(═O)c3ccc(F)cc3)cc12)-c4ccnc(N)n4], the IC50 in test [1] is < 5 µM; in test [2] it was > 5 µM.
The matching figures for `Cc1c(-c2ccnc(N)n2)sc2ccc(Cc3ccccc3)cc12` [Example 24, 4-(5-Benzyl-3-methylbenzo[b]thiophen-2-yl)pyrimidin-2-amine]: < 5 µM and < 5 µM.
The matching figures for `Cc1c(-c2ccnc(N)n2)sc2ccc(CNC(=O)C3CC(O)CN3C(=O)OC(C)(C)C)cc12` (stereo not shown) [Example 311, Cc1c(sc2ccc(CNC(═O)[C]3CC(O)CN3C(═O)OC(C)(C)C)cc12)-c4ccnc(N)n4]: > 5 µM and > 5 µM.
For `COc1cc(NC(=O)c2sc3nc(-c4ccncc4)ccc3c2N)cc(OC)c1OC` [Example 94] the same measures were < 5 µM and < 5 µM.
With `Cc1c(-c2ccnc(N)n2)sc2ccc(CNC(=O)CC(C)CC(C)(C)C)cc12` (stereo not shown) [Example 158, CC(CC(═O)NCc1ccc2sc(c(C)c2c1)-c3ccnc(N)n3)CC(C)(C)C], the IC50 in test [1] and in test [2] was > 5 µM each time.
In the case of `COC(=O)c1ccc(C(=O)Nc2cccc(Nc3ccc4sc(-c5ccnc(N)n5)c(C)c4c3)c2)cc1` [Example 62, Methyl 4-(3-(2-(2-aminopyrimidin-4-yl)-3-methylbenzo[b]thiophen-5-ylamino)phenylcarbamoyl)benzoate], the IC50 in test [1] and in test [2] was < 5 µM throughout.
`Cc1c(-c2ccnc(N)n2)sc2ccc(CNC(=O)c3cccnc3)cc12` [Example 109, Cc1c(sc2ccc(CNC(═O)c3cccnc3)cc12)-c4ccnc(N)n4]: the IC50 is < 5 µM in test [1] and > 5 µM in test [2].
With `Cc1c(-c2ccnc(N)n2)sc2ccc(CNC(=O)c3ccc(F)cc3F)cc12` [Example 155, Cc1c(sc2ccc(CNC(═O)c3ccc(F)cc3F)cc12)-c4ccnc(N)n4], the IC50 was < 5 µM in test [1] and > 5 µM in test [2].
For `Cc1c(-c2ccnc(N)n2)sc2ccc(CNC(=O)c3cc4ccccc4cc3O)cc12` [Example 238, Cc1c(sc2ccc(CNC(═O)c3cc4ccccc4cc3O)cc12)-c5ccnc(N)n5] the same measures were < 5 µM and < 5 µM.
For `Cc1c(-c2ccnc(N)c2)sc2ccc(Cl)cc12` [Example 7, 4-(5-Chloro-3-methylbenzo[b]thiophen-2-yl)pyridin-2-amine] the same measures were > 5 µM and > 5 µM.
The matching figures for `Cc1ccc(C(=O)NCc2ccc3sc(-c4ccnc(N)n4)c(C)c3c2)cc1C` [Example 136, Cc1ccc(cc1C)C(═O)NCc2ccc3sc(c(C)c3c2)-c4ccnc(N)n4]: > 5 µM and > 5 µM.
For `Cc1ccc(C(=O)NCc2ccc3sc(-c4ccnc(N)n4)c(C)c3c2)cc1F` [Example 145, Cc1ccc(cc1F)C(═O)NCc2ccc3sc(c(C)c3c2)-c4ccnc(N)n4], the results for the IC50 in test [1] and in test [2] were < 5 µM and > 5 µM, respectively.
The matching figures for `Cc1c(-c2ccnc(N)n2)sc2ccc(CNC(=O)c3ccc(-c4ccc(O)cc4)cc3)cc12` [Example 285, Cc1c(sc2ccc(CNC(═O)c3ccc(cc3)-c4ccc(O)cc4)cc12)-c5ccnc(N)n5]: < 5 µM and > 5 µM.
Take `Cc1c(-c2ccnc(N)n2)sc2ccc(CNC(=O)C(NC(=O)OC(C)(C)C)C(C)C)cc12` (stereo not shown) [Example 293, CC(C)[C](NC(═O)OC(C)(C)C)C(═O)NCc1ccc2sc(c(C)c2c1)-c3ccnc(N)n3]: in test [2], the IC50 is > 5 µM.
